Several values for one entry are separate records, joined by “and”; a condition that tells them apart may be missing. Equal values may be shown once. Inconclusive results and toxic doses are left out. Rule for the calls: active = survival T/C of 150% or more; inactive = T/C below 125% in these data.
Test system: BDF1 mice, P388 leukemia ip, median survival T/C
Assay: NCI In Vivo Anticancer Drug Screen. Data for tumor model P388 Leukemia (intraperitoneal) in B6D2F1 (BDF1) mice
Conditions: endpoint: median survival time, higher = longer survival
Summary of the method: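 Reported as T/C, where T is the survival measurement in dosed animals and C the same measurement in vehicle controls.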

[1] = dose: 50.0 mg/kg/injection, schedule: Q04DX003 (ip), vehicle: saline with Tween-80
[2] = dose: 100.0 mg/kg/injection, schedule: Q04DX003 (ip), vehicle: saline with Tween-80

Measured: T/C

c1ccc2c3c(ccc2c1)OCCOCCOc1ccc2ccccc2c1-3
inactive: dose: 50.0 mg/kg/injection, schedule: Q01DX009 (ip), vehicle: saline with Tween-80 86 % of control | dose: 100.0 mg/kg/injection, schedule: Q01DX009 (ip), vehicle: saline with Tween-80 88 % of control | dose: 200.0 mg/kg/injection, schedule: Q01DX009 (ip), vehicle: saline with Tween-80 92 % of control

CCC12C=CCN3CCC4(c5ccc(OC)cc5N(C)C4C(O)(C(=O)OC)C1OC(C)=O)C32 (stereo not given) (tested in a mixture with another compound)
inactive: dose: 0.06 mg/kg/injection, schedule: Q01DX009 (ip), vehicle: water 86 % of control and 95 % of control | dose: 0.12 mg/kg/injection, schedule: Q01DX009 (ip), vehicle: water 90 % of control | dose: 0.25 mg/kg/injection, schedule: Q01DX009 (ip), vehicle: water 86 % of control and 104 % of control | dose: 0.5 mg/kg/injection, schedule: Q01DX009 (ip), vehicle: water 90 % of control | dose: 1.0 mg/kg/injection, schedule: Q01DX009 (ip), vehicle: water 86 % of control and 90 % of control | dose: 2.0 mg/kg/injection, schedule: Q01DX009 (ip), vehicle: water 100 % of control and 90 % of control

CN1CCOC1=Nc1ccc(Cl)cc1
inactive: [1] 104 % of control | [2] 86 % of control and 100 % of control | dose: 200.0 mg/kg/injection, schedule: Q04DX003 (ip), vehicle: saline with Tween-80 95 % of control | dose: 400.0 mg/kg/injection, schedule: Q04DX003 (ip), vehicle: saline with Tween-80 90 % of control

COc1cc2c(cc1OC)C1=C(CC2)C2CCCN2CC1 (stereo not given)
inactive: dose: 6.25 mg/kg/injection, schedule: Q01DX009 (ip), vehicle: saline 95 % of control | dose: 12.5 mg/kg/injection, schedule: Q01DX009 (ip), vehicle: saline 105 % of control | dose: 25.0 mg/kg/injection, schedule: Q01DX009 (ip), vehicle: saline 95 % of control

Cc1ccc(/C=C2\NC(=O)NC2=O)cc1
inactive: dose: 25.0 mg/kg/injection, schedule: Q01DX009 (ip), vehicle: water 106 % of control | dose: 50.0 mg/kg/injection, schedule: Q01DX009 (ip), vehicle: water 106 % of control | dose: 50.0 mg/kg/injection, schedule: Q04DX003 (ip), vehicle: water 94 % of control | dose: 100.0 mg/kg/injection, schedule: Q01DX009 (ip), vehicle: water 95 % of control | dose: 100.0 mg/kg/injection, schedule: Q04DX003 (ip), vehicle: water 106 % of control | dose: 200.0 mg/kg/injection, schedule: Q01DX009 (ip), vehicle: water 98 % of control | dose: 200.0 mg/kg/injection, schedule: Q04DX003 (ip), vehicle: water 103 % of control | dose: 400.0 mg/kg/injection, schedule: Q01DX009 (ip), vehicle: water 94 % of control | dose: 400.0 mg/kg/injection, schedule: Q04DX003 (ip), vehicle: water 97 % of control

ClC(Cl)(Cl)c1nc2nccnc2[nH]1
inactive: dose: 44.0 mg/kg/injection, schedule: Q04DX003 (ip), vehicle: Klucel (hydroxypropylcellulose) (HPC) 104 % of control | [1] 109 % of control | dose: 66.0 mg/kg/injection, schedule: Q04DX003 (ip), vehicle: Klucel (hydroxypropylcellulose) (HPC) 108 % of control | dose: 66.0 mg/kg/injection, schedule: Q04DX003 (ip), vehicle: saline with Tween-80 109 % of control | [2] 104 % of control | dose: 150.0 mg/kg/injection, schedule: Q04DX003 (ip), vehicle: Klucel (hydroxypropylcellulose) (HPC) 100 % of control

ClC(c1ccccc1)(c1ccccc1)c1ccccc1
inactive: dose: 100.0 mg/kg/injection, schedule: Q04DX003 (ip), vehicle: other 100 % of control | dose: 200.0 mg/kg/injection, schedule: Q04DX003 (ip), vehicle: other 108 % of control | dose: 400.0 mg/kg/injection, schedule: Q04DX003 (ip), vehicle: other 104 % of control

O=C(OCC1OC(n2cnc3c(=O)[nH]c(=O)[nH]c32)C(OC(=O)c2ccccc2)C1OC(=O)c1ccccc1)c1ccccc1 (stereo not given)
inactive: dose: 50.0 mg/kg/injection, schedule: Q01DX010 (ip), vehicle: saline with Tween-80 100 % of control | dose: 100.0 mg/kg/injection, schedule: Q01DX010 (ip), vehicle: saline with Tween-80 90 % of control | dose: 200.0 mg/kg/injection, schedule: Q01DX010 (ip), vehicle: saline with Tween-80 90 % of control | dose: 400.0 mg/kg/injection, schedule: Q01DX010 (ip), vehicle: saline with Tween-80 90 % of control

CCCCC(CC)COC(=O)/C=C/C(=O)OCC(CC)CCCC (stereo not given)
inactive: dose: 100.0 mg/kg/injection, schedule: Q01DX009 (ip), vehicle: Klucel (hydroxypropylcellulose) (HPC) 86 % of control | dose: 200.0 mg/kg/injection, schedule: Q01DX009 (ip), vehicle: Klucel (hydroxypropylcellulose) (HPC) 86 % of control
